Measured values: ChEMBL document CHEMBL1201861, “Genomics of Drug Sensitity in Cancer screening data, Wellcome Trust Sanger Institute”
pIC50: −log10 of the molar value.

What was measured:
Type in all cases: functional, cell-based
PFSK-1 = assay: cells; details: Homo sapiens;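 further: cell viability assay measuring how strongly compounds suppress growth of human PFSK-1 cells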
Description: SANGER: Inhibition of human PFSK-1 cell growth in a cell viability assay.

CHP-212 = assay: cells; details: Homo sapiens
Description: SANGER: Inhibition of human CHP-212 cell growth in a cell viability assay.

ST486 = assay: SANGER: Inhibition of human ST486 cell growth in a cell viability assay.
8505C = assay: cells; details: Homo sapiens
Description: SANGER: Inhibition of human 8505C cell growth in a cell viability assay.

NCI-H748 = assay: cells; details: Homo sapiens;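 further: growth inhibition of NCI-H748 cells, measured by a cell viability assay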
Description: SANGER: Inhibition of human NCI-H748 cell growth in a cell viability assay.

SW13 = assay: cells; details: Homo sapiens;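 further: IC50 is inhibition of SW13 cell growth, read out with a cell viability assay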
Description: SANGER: Inhibition of human SW13 cell growth in a cell viability assay.

TGW = assay: cells; details: Homo sapiens;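 further: growth inhibition of human TGW cells, read out with a cell viability assay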
Description: SANGER: Inhibition of human TGW cell growth in a cell viability assay.

KYSE-70 cell line = assay: cells; details: Homo sapiens;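 further: cell viability assay read-out, with IC50 expressing suppression of KYSE-70 cell growth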
Description: SANGER: Inhibition of human KYSE-70 cell growth in a cell viability assay.

HO-1-N-1 = assay: cells; details: Homo sapiens;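 further: growth inhibition of human HO-1-N-1 cells, read out with a cell viability assay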
Description: SANGER: Inhibition of human HO-1-N-1 cell growth in a cell viability assay.

HCC1569 = assay: cells; details: Homo sapiens;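 further: growth inhibition of human HCC1569 cells, read out with a cell viability assay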
Description: SANGER: Inhibition of human HCC1569 cell growth in a cell viability assay.

KYSE-410 = assay: cells; details: Homo sapiens;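 further: growth inhibition of KYSE-410 cells, measured through a cell viability readout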
Description: SANGER: Inhibition of human KYSE-410 cell growth in a cell viability assay.

769-P = assay: cells; details: Homo sapiens
Description: SANGER: Inhibition of human 769-P cell growth in a cell viability assay.

SW780 = assay: cells; details: Homo sapiens;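 further: growth inhibition of the cells, read out with a cell viability assay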
Description: SANGER: Inhibition of human SW780 cell growth in a cell viability assay.

COLO-678 = assay: cells; details: Homo sapiens
Description: SANGER: Inhibition of human COLO-678 cell growth in a cell viability assay.

UACC-893 = assay: cells; details: Homo sapiens
Description: SANGER: Inhibition of human UACC-893 cell growth in a cell viability assay.

ASPC1 = assay: cells; details: Homo sapiens;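 further: growth inhibition of AsPC-1 cells, read out with a cell viability assay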
Description: SANGER: Inhibition of human AsPC-1 cell growth in a cell viability assay.

FaDu = assay: cells; details: Homo sapiens;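 further: cell viability readout of growth inhibition in FaDu cells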
Description: SANGER: Inhibition of human FADU cell growth in a cell viability assay.

BEN = assay: cells; details: Homo sapiens;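 further: growth inhibition of the BEN cell line, read out with a cell viability assay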
Description: SANGER: Inhibition of human BEN cell growth in a cell viability assay.

MCF7 = assay: cells; details: Homo sapiens;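 further: growth inhibition of human MCF7 cells, read out with a cell viability assay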
Description: SANGER: Inhibition of human MCF7 cell growth in a cell viability assay.

639-V = assay: cells; details: Homo sapiens;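 further: growth inhibition of 639-V cells, read out with a cell viability assay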
Description: SANGER: Inhibition of human 639-V cell growth in a cell viability assay.

HTC-C3 = assay: cells; details: Homo sapiens;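 further: inhibition of cell growth, read out with a cell viability assay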
Description: SANGER: Inhibition of human HTC-C3 cell growth in a cell viability assay.

VMRC-RCZ = assay: cells; details: Homo sapiens
Description: SANGER: Inhibition of human VMRC-RCZ cell growth in a cell viability assay.

IMR-5 = assay: cells; details: Homo sapiens;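 further: growth inhibition of human IMR-5 cells, read out with a cell viability assay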
Description: SANGER: Inhibition of human IMR-5 cell growth in a cell viability assay.

SNU-449 = assay: cells; details: Homo sapiens
Description: SANGER: Inhibition of human SNU-449 cell growth in a cell viability assay.

NCI-H2452 = assay: cells; details: Homo sapiens;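 further: growth inhibition of NCI-H2452 cells, read out with a cell viability assay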
Description: SANGER: Inhibition of human NCI-H2452 cell growth in a cell viability assay.

SW1990 = assay: cells; details: Homo sapiens
Description: SANGER: Inhibition of human SW1990 cell growth in a cell viability assay.

DMS-153 = assay: cells; details: Homo sapiens
Description: SANGER: Inhibition of human DMS-153 cell growth in a cell viability assay.

LOUCY = assay: cells; details: Homo sapiens;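 further: growth inhibition of human LOUCY cells, read out with a cell viability assay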
Description: SANGER: Inhibition of human LOUCY cell growth in a cell viability assay.

Daoy = assay: cells; details: Homo sapiens;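 further: daoy cell growth inhibition, read out as cell viability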
Description: SANGER: Inhibition of human Daoy cell growth in a cell viability assay.

KYSE-450 = assay: cells; details: Homo sapiens;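 further: cell growth inhibition measured by a viability assay in human KYSE-450 cells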
Description: SANGER: Inhibition of human KYSE-450 cell growth in a cell viability assay.

NCI-H1573 = assay: cells; details: Homo sapiens;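 further: growth inhibition of NCI-H1573 cells, read out with a cell viability assay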
Description: SANGER: Inhibition of human NCI-H1573 cell growth in a cell viability assay.

NCI-H2228 = assay: cells; details: Homo sapiens;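 further: growth inhibition of human NCI-H2228 cells, read out by a cell viability assay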
Description: SANGER: Inhibition of human NCI-H2228 cell growth in a cell viability assay.

NB1 = assay: cells; details: Homo sapiens;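 further: reduction of NB1 cell proliferation, read out with a viability assay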
Description: SANGER: Inhibition of human NB1 cell growth in a cell viability assay.

BT-20 = assay: cells; details: Homo sapiens;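 further: cell viability assay measuring suppression of growth in human BT-20 cells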
Description: SANGER: Inhibition of human BT-20 cell growth in a cell viability assay.

NCI-H2081 = assay: cells; details: Homo sapiens;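 further: growth inhibition of human NCI-H2081 cells, read out with a cell viability assay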
Description: SANGER: Inhibition of human NCI-H2081 cell growth in a cell viability assay.

COR-L279 = assay: SANGER: Inhibition of human COR-L279 cell growth in a cell viability assay.
SJRH30 = assay: cells; details: Homo sapiens;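 further: growth inhibition of human SJRH30 cells, read out with a cell viability assay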
Description: SANGER: Inhibition of human SJRH30 cell growth in a cell viability assay.

CWR22R = assay: cells; details: Homo sapiens, 22Rv1;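 further: growth inhibition of 22Rv1 cells, read out with a cell viability assay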
Description: SANGER: Inhibition of human 22RV1 cell growth in a cell viability assay.

HPAF-II = assay: cells; details: Homo sapiens;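 further: growth inhibition of HPAF-II cells, read out with a cell viability assay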
Description: SANGER: Inhibition of human HPAF-II cell growth in a cell viability assay.

NALM-6 = assay: cells; details: Homo sapiens;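 further: growth inhibition of NALM-6 cells, read out with a cell viability assay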
Description: SANGER: Inhibition of human NALM-6 cell growth in a cell viability assay.

KU-19-19 = assay: cells; details: Homo sapiens
Description: SANGER: Inhibition of human KU-19-19 cell growth in a cell viability assay.

VM-CUB-1 = assay: cells; details: Homo sapiens;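 further: cell viability assay measuring growth inhibition of the human VM-CUB-1 cell line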
Description: SANGER: Inhibition of human VM-CUB-1 cell growth in a cell viability assay.

NCI-H1436 = assay: cells; details: Homo sapiens;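 further: growth suppression of human NCI-H1436 cells, determined with a cell viability readout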
Description: SANGER: Inhibition of human NCI-H1436 cell growth in a cell viability assay.

HCC1419 = assay: cells; details: Homo sapiens;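 further: growth inhibition of human HCC1419 cells, read out as cell viability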
Description: SANGER: Inhibition of human HCC1419 cell growth in a cell viability assay.

Panc1005 = assay: cells; details: Homo sapiens;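 further: growth inhibition of human PANC-10-05 cells, measured by a cell viability assay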
Description: SANGER: Inhibition of human PANC-10-05 cell growth in a cell viability assay.

OE19 = assay: cells; details: Homo sapiens;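 further: growth inhibition of OE19 cells, measured through a cell viability read-out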
Description: SANGER: Inhibition of human OE19 cell growth in a cell viability assay.

SW1710 = assay: cells; details: Homo sapiens;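 further: growth inhibition of SW1710 cells, determined with a cell viability assay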
Description: SANGER: Inhibition of human SW1710 cell growth in a cell viability assay.

IM-9 = assay: SANGER: Inhibition of human IM-9 cell growth in a cell viability assay.
NCI-H1693 = assay: cells; details: Homo sapiens;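 further: growth inhibition of the human cell line, read out with a cell viability assay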
Description: SANGER: Inhibition of human NCI-H1693 cell growth in a cell viability assay.

SIMA = assay: cells; details: Homo sapiens;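 further: growth inhibition of SIMA cells, measured with a cell viability readout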
Description: SANGER: Inhibition of human SIMA cell growth in a cell viability assay.

MDA-MB-231 = assay: cells; details: Homo sapiens
Description: SANGER: Inhibition of human MDA-MB-231 cell growth in a cell viability assay.

BOKU = assay: cells; details: Homo sapiens;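 further: growth inhibition of the human BOKU cell line, read out by a cell viability assay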
Description: SANGER: Inhibition of human BOKU cell growth in a cell viability assay.

SCC-9 = assay: cells; details: Homo sapiens;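 further: Read-out is a cell viability assay, with values giving inhibition of cell growth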
Description: SANGER: Inhibition of human SCC-9 cell growth in a cell viability assay.

NCI-H1993 = assay: cells; details: Homo sapiens;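 further: growth inhibition of the cancer cell line, assessed with a cell viability assay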
Description: SANGER: Inhibition of human NCI-H1993 cell growth in a cell viability assay.

K052 = assay: cells; details: Homo sapiens;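 further: Read-out from a cell viability assay, IC50 reflecting suppression of K052 cell growth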
Description: SANGER: Inhibition of human K052 cell growth in a cell viability assay.

CMK = assay: cells; details: Homo sapiens;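 further: growth inhibition of CMK cells, read out as cell viability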
Description: SANGER: Inhibition of human CMK cell growth in a cell viability assay.

SW1417 = assay: cells; details: Homo sapiens;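 further: growth inhibition of human SW1417 cells, read out with a cell viability assay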
Description: SANGER: Inhibition of human SW1417 cell growth in a cell viability assay.

WSU-NHL = assay: cells; details: Homo sapiens;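 further: growth inhibition of human WSU-NHL cells, read out with a cell viability assay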
Description: SANGER: Inhibition of human WSU-NHL cell growth in a cell viability assay.

SW756 = assay: cells; details: Homo sapiens;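 further: growth inhibition of human SW756 cells, read out with a cell viability assay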
Description: SANGER: Inhibition of human SW756 cell growth in a cell viability assay.

Calu-3 = assay: cells; details: Homo sapiens;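 further: growth inhibition of human Calu-3 cells, determined with a cell viability assay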
Description: SANGER: Inhibition of human Calu-3 cell growth in a cell viability assay.

IST-SL2 = assay: cells; details: Homo sapiens;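 further: growth inhibition of human IST-SL2 cells, read out by a cell viability assay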
Description: SANGER: Inhibition of human IST-SL2 cell growth in a cell viability assay.

SAS = assay: cells; details: Homo sapiens
Description: SANGER: Inhibition of human SAS cell growth in a cell viability assay.

CP50-MEL-B = assay: cells; details: Homo sapiens
Description: SANGER: Inhibition of human CP50-MEL-B cell growth in a cell viability assay.

Compound CC(O)(CS(=O)(=O)c1ccc(F)cc1)C(=O)Nc1ccc(C#N)c(C(F)(F)F)c1 (stereo unspecified) [BICALUTAMIDE] has a pIC50 (PFSK-1) of under 5.99, a pIC50 (CHP-212) of under 5.99 and a pIC50 (ST486) of under 5.99. It also gave a pIC50 (8505C) of under 5.99, a pIC50 (NCI-H748) of under 5.99 and a pIC50 (SW13) of under 5.99. For the same compound, the pIC50 (TGW) was under 5.99, the pIC50 (KYSE-70 cell line) was under 5.99 and the pIC50 (HO-1-N-1) was under 5.99. It also gave a pIC50 (HCC1569) of under 5.99, a pIC50 (KYSE-410) of under 5.99 and a pIC50 (769-P) of under 5.99. The pIC50 (SW780) was under 5.99, the pIC50 (COLO-678) was under 5.99 and the pIC50 (UACC-893) was under 5.99. The pIC50 (ASPC1) was under 5.99, the pIC50 (FaDu) was under 5.99 and the pIC50 (BEN) was under 5.99. For the same compound, the pIC50 (MCF7) was under 5.99, the pIC50 (639-V) was under 5.99 and the pIC50 (HTC-C3) was under 5.99. The pIC50 (VMRC-RCZ) was under 5.99, the pIC50 (IMR-5) was under 5.99 and the pIC50 (SNU-449) was under 5.99. It also gave a pIC50 (NCI-H2452) of under 5.99, a pIC50 (SW1990) of under 5.99 and a pIC50 (DMS-153) of under 5.99. It also gave a pIC50 (LOUCY) of under 5.99, a pIC50 (Daoy) of under 5.99 and a pIC50 (KYSE-450) of under 5.99. It also gave a pIC50 (NCI-H1573) of under 5.99, a pIC50 (NCI-H2228) of under 5.99 and a pIC50 (NB1) of under 5.99. It also gave a pIC50 (BT-20) of under 5.99, a pIC50 (NCI-H2081) of under 5.99 and a pIC50 (COR-L279) of under 5.99. It also gave a pIC50 (SJRH30) of under 5.99, a pIC50 (CWR22R) of under 5.99 and a pIC50 (HPAF-II) of under 5.99. The pIC50 (NALM-6) was under 5.99, the pIC50 (KU-19-19) was under 5.99 and the pIC50 (VM-CUB-1) was under 5.99. The pIC50 (NCI-H1436) was under 5.99, the pIC50 (HCC1419) was under 5.99 and the pIC50 (Panc1005) was under 5.99. It also gave a pIC50 (OE19) of under 5.99, a pIC50 (SW1710) of under 5.99 and a pIC50 (IM-9) of under 5.99. For the same compound, the pIC50 (NCI-H1693) was under 5.99, the pIC50 (SIMA) was under 5.99 and the pIC50 (MDA-MB-231) was under 5.99. The pIC50 (BOKU) was under 5.99, the pIC50 (SCC-9) was under 5.99 and the pIC50 (NCI-H1993) was under 5.99. The pIC50 (K052) was under 5.99, the pIC50 (CMK) was under 5.99 and the pIC50 (SW1417) was under 5.99. The pIC50 (WSU-NHL) was under 5.99, the pIC50 (SW756) was under 5.99 and the pIC50 (Calu-3) was under 5.99. The pIC50 (IST-SL2) was under 5.99, the pIC50 (SAS) was under 5.99 and the pIC50 (CP50-MEL-B) was under 5.99.
In the case of CCNC(=O)c1noc(-c2cc(C(C)C)c(O)cc2O)c1-c1ccc(CN2CCOCC2)cc1 [LUMINESPIB], the pIC50 (PFSK-1) was 6.99, the pIC50 (CHP-212) was 7.66 and the pIC50 (ST486) was 7.26. The pIC50 (8505C) was 8.09, the pIC50 (NCI-H748) was under 6.59 and the pIC50 (SW13) was 7.34. It also gave a pIC50 (TGW) of 6.78, a pIC50 (KYSE-70 cell line) of 7.42 and a pIC50 (HO-1-N-1) of 7.59. The pIC50 (HCC1569) was 7.44, the pIC50 (KYSE-410) was 7.80 and the pIC50 (769-P) was 7.97. The pIC50 (SW780) was under 6.59, the pIC50 (COLO-678) was under 6.59 and the pIC50 (UACC-893) was 7.23. It also gave a pIC50 (ASPC1) of under 6.59, a pIC50 (FaDu) of 7.17 and a pIC50 (BEN) of 6.94. For the same compound, the pIC50 (MCF7) was 8.48, the pIC50 (639-V) was 8.31 and the pIC50 (HTC-C3) was 7.58. It also gave a pIC50 (VMRC-RCZ) of 7.78, a pIC50 (IMR-5) of 7.35 and a pIC50 (SNU-449) of 7.69. It also gave a pIC50 (NCI-H2452) of under 6.59, a pIC50 (SW1990) of 7.56 and a pIC50 (DMS-153) of 7.11. It also gave a pIC50 (LOUCY) of 8.30, a pIC50 (Daoy) of 8.16 and a pIC50 (KYSE-450) of 7.87. The pIC50 (NCI-H1573) was 6.75, the pIC50 (NCI-H2228) was 7.97 and the pIC50 (NB1) was 6.84. The pIC50 (BT-20) was under 6.59, the pIC50 (NCI-H2081) was 6.82 and the pIC50 (COR-L279) was 6.80. For the same compound, the pIC50 (SJRH30) was 7.02, the pIC50 (CWR22R) was 7.46 and the pIC50 (HPAF-II) was under 6.59. It also gave a pIC50 (NALM-6) of 9.07, a pIC50 (KU-19-19) of 6.97 and a pIC50 (VM-CUB-1) of 7.27. For the same compound, the pIC50 (NCI-H1436) was 6.66, the pIC50 (HCC1419) was 7.02 and the pIC50 (Panc1005) was 7.76. The pIC50 (OE19) was 7.71, the pIC50 (SW1710) was 8.73 and the pIC50 (IM-9) was 6.63. The pIC50 (NCI-H1693) was 7.44, the pIC50 (SIMA) was under 6.59 and the pIC50 (MDA-MB-231) was 7.04. The pIC50 (BOKU) was 7.18, the pIC50 (SCC-9) was 7.23 and the pIC50 (NCI-H1993) was under 6.59. For the same compound, the pIC50 (K052) was 6.77, the pIC50 (CMK) was over 9.00 and the pIC50 (SW1417) was under 6.59. The pIC50 (WSU-NHL) was 7.13, the pIC50 (SW756) was 7.38 and the pIC50 (Calu-3) was 7.42. The pIC50 (IST-SL2) was 7.24, the pIC50 (SAS) was 7.04 and the pIC50 (CP50-MEL-B) was 7.08.
